From US7276531B2, “G-lactam derivatives as prostaglandin agonists” (Applied Research Systems ARS Holding N.V., priority 2003, dated 2007)

Legend:
[1] = target: h-EP4 (Homo sapiens, UniProt P35408); assay: EP4 receptor binding assay (3H-PGE2 SPA); details: EP4 receptor membranes, 20 nM 3H-PGE2, pH 6.0
Experimental: Compounds of the invention were tested in an EP4 receptor binding assay of the following protocol.

[2] = target: h-EP2 (Homo sapiens, UniProt P43116); assay: Prostaglandin EP2 receptor binding assay (3H-PGE2 SPA); details: EP2 receptor membranes, 20 nM 3H-PGE2, pH 6.0
Sequence of h-EP2 (P43116 whole entry): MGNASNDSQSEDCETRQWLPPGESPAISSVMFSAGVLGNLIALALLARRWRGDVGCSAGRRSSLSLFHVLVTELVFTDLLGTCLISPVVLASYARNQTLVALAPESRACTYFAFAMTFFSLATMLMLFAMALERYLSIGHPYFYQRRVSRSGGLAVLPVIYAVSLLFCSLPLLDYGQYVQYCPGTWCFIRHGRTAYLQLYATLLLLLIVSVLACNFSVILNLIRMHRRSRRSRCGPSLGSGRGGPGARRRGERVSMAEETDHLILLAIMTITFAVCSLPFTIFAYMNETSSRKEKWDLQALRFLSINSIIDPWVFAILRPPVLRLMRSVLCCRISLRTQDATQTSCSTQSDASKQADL
Experimental: Compounds of the invention were tested in an EP2 receptor binding assay of the following protocol. As referred to herein, the term an “EP2 receptor binding assay” designates the following protocol.

[3] = target: T1, hEP2 receptors (Homo sapiens, UniProt P43116); assay: EP2 cAMP assay, HEK293-EBNA cells transfected with pCEP4-hEP2 receptors; type: cell-based; details: total cAMP, 1 hour
T1 construct: expressed in transfected cells; host or cells: HEK293-EBNA
T1 sequence (P43116 whole entry): as above
Experimental: Compounds of the invention were tested in a total cAMP assay as follows. […] After overnight incubation, the medium was removed from each well and replaced with 45 μl of assay medium consisted of phenol red free D-MEM/F-12, 0.1% BSA (GibcoBRL) and 0.1 mM 3-isobutyl-1-methyl-xanthine (Sigma). […] Total cAMP (intra- and extra-cellular) was measured by using a cAMP-screen ELISA System (Tropix, #CS1000).

[4] = target: T2, hEP4 receptors (Homo sapiens, UniProt P35408); assay: EP4 cAMP assay, HEK293-EBNA cells transfected with pCEP4-hEP4 receptors; type: cell-based; details: total cAMP, 1 hour
T2 construct: expressed in transfected cells; host or cells: HEK293-EBNA
T2 sequence (P35408 whole entry): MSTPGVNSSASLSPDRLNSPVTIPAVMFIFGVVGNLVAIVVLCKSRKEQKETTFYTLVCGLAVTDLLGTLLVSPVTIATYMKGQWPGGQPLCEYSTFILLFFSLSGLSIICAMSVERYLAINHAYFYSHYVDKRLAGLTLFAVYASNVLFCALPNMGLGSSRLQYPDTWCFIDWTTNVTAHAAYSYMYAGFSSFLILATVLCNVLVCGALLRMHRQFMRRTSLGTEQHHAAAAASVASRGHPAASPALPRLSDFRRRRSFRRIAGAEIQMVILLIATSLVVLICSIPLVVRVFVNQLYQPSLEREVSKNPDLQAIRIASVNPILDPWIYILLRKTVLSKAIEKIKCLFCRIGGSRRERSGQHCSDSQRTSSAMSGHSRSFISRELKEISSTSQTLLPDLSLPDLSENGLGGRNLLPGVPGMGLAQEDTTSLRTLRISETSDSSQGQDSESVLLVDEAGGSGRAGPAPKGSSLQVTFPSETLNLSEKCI
Experimental: Compounds of the invention were tested in a total cAMP assay as follows. HEK293-EBNA cells transfected with pCEP4-hEP4 receptors were seeded in 96 well opaque plate (Costar #3917) at 4×10^4 cells per well in 100 μl of culture medium (D-MEM/F12 supplemented with 10% FBS, […] L-glutamine, and 250 μg/ml of hygromycin; all from GibcoBRL) and incubated at 37° C. After overnight incubation, the medium was removed from each well and replaced with 45 μl of assay medium consisted of phenol red free D-MEM/F-12, 0.1% BSA (GibcoBRL) and 0.1 mM 3-isobutyl-1-methyl-xanthine (Sigma). After 15 minutes of incubation at 37° C., 16-16-dimethyl PGE-2 or compounds at desired concentrations in 20 μl of assay medium were added to cells and further incubated at 37° C. for 1 hour. Total cAMP (intra- and extra-cellular) was measured by using a cAMP-screen ELISA System (Tropix, #CS1000).

[5] = tested on: methacholine-induced bronchoconstriction; assay: In vivo inhibition of guinea pig broncho-constriction (methacholine-induced); details: Cavia porcellus, IT (intra-tracheal) route, read-out: calculated effective dose (ED50), bronchoconstriction
Text: The activity of compounds of the invention in dilation of bronchiolar muscles, may be tested in different models. Guinea pig pulmonary-cholinergic in vivo model is generally used to test the materials for the treatments of asthma in human (Fleisch et al., 1985) Compounds of the invention can be tested in this methacholine-induced bronchomuscle constriction model as described below.
Groups of 3 Duncan Hartley derived male or female guinea pigs weighing 250±50 g are anesthetized with pentobarbital sodium (50 mg/kg i.p., plus an additional 15 mg/kg i.p. if required) and succinylcholine chloride (2 mg/animal i.p.) is subsequently administered to prevent spontaneous respiration. Body temperature is maintained at 37° to 38° C.
The trachea is cannulated and the guinea pig is ventilated with a Harvard rodent respirator in a closed system. Tracheal pressure is recorded through a side-arm of the cannula connected to a P23ID Statham transducer. […] Mean arterial pressure (BP) is monitored from a cannulated carotid artery, and heart rate (HR) is obtained from chest electrodes arranged for lead II. […]
Compounds of the invention are also tested via intra-tracheal (IT) route of administration. […] Tracheal pressure (ITP), blood pressure and heart rate are measured immediately as indicated in the material and methods sections. […]

[6] = tested on: LPS-induced TNFα release; assay: In vivo inhibition of LPS-induced TNFα release in mice; details: LPS 0.3 mg/kg i.p.
Experimental: The anti-inflammatory activity of compounds of the invention may be assessed after a LPS challenge using the following protocol:
Eight weeks old C3H/H mice (IFFA-CREDO, L'arbresle, France) receive an oral treatment with compounds of the invention 6 different doses (0.001, 0.01, 0.1, 1 or 3 and 10 mg/kg in 0.5% CMC/0.25% tween-20). Six mice are used by group. Fifteen minutes later, endotoxins (O111:B4 Sigma, 0.3 mg/kg) are intraperitoneally injected. Heparinized whole blood is collected by decapitation. TNFα level is determined in plasma by ELISA (R & D Systems, Abdingdon, UK). Control animals receive 0.5% CMC/0.25% tween-20 (10 ml/kg) as vehicle. Data obtained from experiments are expressed as the mean±SEM and analysed using one-way analysis of variance (ANOVA) followed by Dunnett's t-test.

[7] = tested on: mature mouse ovulation induction model; assay: In vivo ovulation assay (mature mouse ovulation induction model); details: Mus musculus, po, read-out: calculated ED50 (dose of drug which produces 50% of its effect), ovulation; p.o. administration route, mice
Experimental: Ovulation induction activity of compounds of the invention was tested in a mature mouse ovulation induction model.
Mature 10-week-old CD-mice were used. Reagents were prepared as follows: PMSG (pregnant mare serum gonadotropin) (Calbiochem, cat #367222) and hCG (Serono) are diluted in PBS. PGE2 (Cayman, Ann Arbor Mich.) was dissolved in ethanol and diluted with 0.154 M […] Buffer (pH 8.0) to final concentration of ethanol of less than 3 percent. A compound of the invention (based on solubility) was pre-dissolved in ethanol, DMSO or other reagents. The compound of the invention was then diluted with saline or other diluents such as PBS or NP3S (5% N-methyl-pyrrolidinone/30% PEG400/25% PEG200/20% Propylene Glycol in saline). PMSG stimulates ovarian follicular development. After PMSG stimulation, the mature follicules can be stimulated to rupture and release oocytes by an ovulation trigger, such as hCG or a compound of the invention.
The following test protocol is employed for the test animals (typically 5 animals per test group). • Day 1: Inject 5 IU PMSG in 200 μl PBS (i.p. 15:00 PM) • Day 2: No administration • Day 3: Injection of ovulation trigger hCG (i.p.) or hCG replacement (PGE2 or compound of the invention, s.c., i.v. or oral route), 15:00 PM • Day 4: Eighteen hours after injections of the ovulation triggers, animals were sacrificed by CO2 asphyxiation and abdominal cavities were opened using fine scissors and forceps. Uterus, oviducts and ovaries were collected and placed in pre-labeled dishes containing phosphate buffered saline (PBS). The collected tissues were transferred to the laboratory and intact oviduct carefully dissected out from uterus and ovary under the dissection microscope. The dissected oviducts were placed on the glass microscopic slide and covered with another slide. Two slides were taped on two edges. The numbers of ovulated ova in the oviducts were counted using upright microscope with 4× objective and recorded. […]

Sequence of h-EP4 (P35408 whole entry): as above

Row | SMILES | Ki [1] [nM] | Ki [2] [nM] | EC50 [3] [nM] | EC50 [4] [nM] | further results
1 | CCCC/C(C)=C/C=C\[C@H]1CCC(=O)N1CCCc1ccc(C(=O)O)s1 (single isomer, unassigned) [Example 13] | 6 | 60 | – | – | –
2 | CCCC/C(C)=C/C=C\[C@H]1CCC(=O)N1CCCc1ccc(C(=O)O)s1 (single isomer, unassigned) [Example 19] | 6 | 60 | 49 | 2 | –
3 | CCCC/C=C/C=C\[C@H]1CCC(=O)N1CCc1ccc(C(=O)O)cc1 [Example 1, 4-(2-{(2R)-2-[(1Z,3E)-octa-1,3-dienyl]-5-oxopyrrolidin-1-yl}ethyl)benzoic acid] | 25 | 88 | 197 | 20 | –
4 | CC/C=C/C=C\[C@H]1CCC(=O)N1CCc1ccc(C(=O)O)cc1 [Example 7, 4-(2-{(2R)-2-[(1Z,3E)-hexa-1,3-dienyl]-5-oxopyrrolidin-1-yl}ethyl)benzoic acid] | 71 | 1530 | 2600 | 2 | –
5 | CC(C)=CCC/C(C)=C/C=C\[C@H]1CCC(=O)N1CCc1ccc(C(=O)O)cc1 [Example 11, 4-(2-{(2R)-2-[(1Z,3E)-4,8-dimethylnona-1,3,7-trienyl]-5-oxopyrrolidin-1-yl}ethyl)benzoic acid] | 45 | 410 | 1050 | 2 | –
6 | CC(C)=CCC/C(C)=C/C=C/[C@H]1CCC(=O)N1CCc1ccc(C(=O)O)cc1 [Example 12, 4-(2-{(2R)-2-[(1E,3E)-4,8-dimethylnona-1,3,7-trienyl]-5-oxopyrrolidin-1-yl}ethyl)benzoic acid] | 470 | 750 | – | – | –
7 | CCCC/C=C/C=C\[C@H]1CCC(=O)N1CCCc1ccc(C(=O)O)s1 [Example 17, 5-(3-{(2R)-2-[(1Z,3E)-octa-1,3-dienyl]-5-oxopyrrolidin-1-yl}propyl)thiophene-2-carboxylic acid] | 51 | 44 | – | – | –
8 | CCCC/C=C(C)/C=C/[C@H]1CCC(=O)N1CCc1ccc(C(=O)O)cc1 [Example 22, 4-(2-{(2R)-2-[(1E,3E)-3-methylocta-1,3-dienyl]-5-oxopyrrolidin-1-yl}ethyl)benzoic acid] | 145 | 34 | 23 | 21 | ED50 [5]: 0.4 mg/kg; % of Inhibition of TNF Release Mean ± SEM ([6]; oral dose 0.001 mg/kg): 46 ± 2%; % of Inhibition of TNF Release Mean ± SEM ([6]; oral dose 0.01 mg/kg): 49 ± 4%; % of Inhibition of TNF Release Mean ± SEM ([6]; oral dose 0.1 mg/kg): 59 ± 2%; % of Inhibition of TNF Release Mean ± SEM ([6]; oral dose 1 mg/kg): 70 ± 4%; % of Inhibition of TNF Release Mean ± SEM ([6]; oral dose 10 mg/kg): 87 ± 2%
9 | C/C(=C\C=C/[C@H]1CCC(=O)N1CCc1ccc(C(=O)O)cc1)CC1CCCC1 [Example 30, 4-(2-{(2)-2-[(1Z,3E)-5-cyclopentyl-4-methylpenta-1,3-dienyl]-5-oxopyrrolidin-1-yl}ethyl)benzoic acid] | 117 | 60 | – | – | –
10 | C/C(=C\C=C/[C@H]1CCC(=O)N1CCc1ccc(C(=O)O)cc1)c1ccccc1 [Example 32, 4-(2-{(2R)-2-[(1Z,3E)-4-phenylpenta-1,3-dienyl]-5-oxopyrrolidin-1-yl}ethyl)benzoic acid] | 29 | 749 | – | – | –
11 | CCC/C(C)=C/C=C\[C@H]1CCC(=O)N1CCc1ccc(C(=O)O)cc1 [Example 44, 4-(2-{(2R)-2-[(1Z,3E)-4-methylhepta-1,3-dienyl]-5-oxopyrrolidin-1-yl}ethyl)benzoic acid] | 6 | 79 | – | – | ED50 [7]: 1 mg/kg
12 | C/C(=C\C=C\[C@H]1CCC(=O)N1CCc1ccc(C(=O)O)cc1)C(C)C [Example 55, 4-(2-{(2R)-2-[(1E,3E)-4,5-dimethylhexa-1,3-dienyl]-5-oxopyrrolidin-1-yl}ethyl)benzoic acid] | 164 | 36 | – | – | –
13 | O=C(O)c1ccc(CCN2C(=O)CC[C@@H]2/C=C\C=C2CCCCC2)cc1 [Example 56] | 307 | 27 | – | – | –
14 | O=C(O)c1ccc(CCN2C(=O)CC[C@@H]2/C=C\C=C(/c2ccccc2)C(F)(F)F)cc1 [Example 58] | 69 | 100 | – | – | –
15 | C/C(=C\C=C\[C@H]1CCC(=O)N1CCc1ccc(C(=O)O)cc1)C1CC1 [Example 63, 4-(2-{(2R)-2-[(1E,3E)-4-cyclopropylpenta-1,3-dienyl]-5-oxopyrrolidin-1-yl}ethyl)benzoic acid] | 165 | 277 | – | – | –
